We go through eight compounds from patent publication US20090069398A1, “Pyrazolyl Carboxamides” (Bayer CropScience AG, priority 2005, published 2009).

Structures are written as SMILES.

Data set [1] deals with Pyrenophora teres. In words: Pyrenophora teres test (barley)/protective. Format: in vivo. Particulars: protective, application rate 1000 ppm, evaluation 8 days after inoculation. The method, then:
(§1) [table] To produce a suitable preparation of active compound, 1 part by weight of active compound is mixed with the stated amounts of solvent and emulsifier, and the concentrate is diluted with water to the desired concentration. To test for protective activity, young plants are sprayed with the active compound preparation at the stated application rate. After the spray coating has dried on, the plants are sprayed with a conidia suspension of Pyrenophora teres. The plants remain in an incubation cabin at 20° C. and 100% relative atmospheric humidity for 48 hours. The plants are then placed in a greenhouse at a temperature of about 20° C. and a relative atmospheric humidity of 80%. Evaluation is carried out 8 days after the inoculation. 0% means an efficacy which corresponds to that of the control, whereas an efficacy of 100% means that no infection is observed.

Data set [2] can be described thus: log P determination by HPLC on reversed-phase column (EEC Directive 79/831 Annex V.A8). Format: physicochemical. As to conditions: reversed-phase HPLC column (C 18); pH 2.3; HPLC reversed-phase C 18, 43° C.; 0.1% aqueous phosphoric acid/acetonitrile. The method, then:
The log P values given in the Tables and Preparation Examples above are determined in accordance with EEC Directive 79/831 Annex V.A8 by HPLC (High Performance Liquid Chromatography) on reversed-phase column (C 18). Temperature: 43° C. The determination is carried out in the acidic range at pH 2.3 using the mobile phases 0.1% aqueous phosphoric acid and acetonitrile; linear gradient from 10% acetonitrile to 90% acetonitrile. Calibration is carried out using unbranched alkan-2-ones (having 3 to 16 carbon atoms) with known log P values (determination of the log P values by the retention times using linear interpolation between two successive alkanones).

Data set [3] deals with Alternaria solani. In words: Alternaria test (tomato)/protective. Format: in vivo. Particulars: protective, application rate 500 ppm, evaluation 7 days after inoculation. The method, then: [table] To produce a suitable preparation of active compound, 1 part by weight of active compound is mixed with the stated amounts of solvent and emulsifier, and the concentrate is diluted with water to the desired concentration. […] 1 day after the treatment, the plants are inoculated with a spore suspension of Alternaria solani and then remain at 100% relative humidity and 20° C. for 24 h. The plants then remain at 96% relative atmospheric humidity and a temperature of 20° C. Evaluation is carried out 7 days after the inoculation. 0% means an efficacy which corresponds to that of the control, whereas an efficacy of 100% means that no infection is observed.

The test system of data set [4] is Puccinia recondita. Briefly: Puccinia test (wheat)/protective. Format: in vivo. Particulars: protective, application rate 1000 ppm, evaluation 10 days after inoculation. The method, then: as §1, with “of Puccinia recondita.” for “of Pyrenophora teres.”, “of 80% to promote the development of rust pustules.” for “of 80%.”, “out 10” for “out 8”
Data set [5] has as its system Botrytis cinerea. In words: Botrytis test (cucumber)/protective. Format: in vivo. As to conditions: protective, application rate 500 ppm, evaluation 5-6 days after inoculation. The method, then: [table] To produce a suitable preparation of active compound, 1 part by weight of active compound is mixed with the stated amounts of solvent and emulsifier, and the concentrate is diluted with water to the desired concentration. To test for protective activity, young cucumber plants are sprayed with the active compound preparation at the stated application rate. 1 day after the treatment, the plants are inoculated with a spore suspension of Botrytis cinerea and then remain at 100% relative humidity and 20° C. for 48 h. The plants then remain at 96% relative atmospheric humidity and a temperature of 13° C. Evaluation is carried out 5-6 days after the inoculation. 0% means an efficacy which corresponds to that of the control, whereas an efficacy of 100% means that no infection is observed.

With `CCn1cc(C(=O)Nc2ccc(F)cc2-c2ccc(Cl)c(Cl)c2)c(C(F)F)n1` [drawing 17], the Efficacy in % in data set [1] stood at 100%.
In data set [2], `CCn1cc(C(=O)Nc2ccc(F)cc2-c2ccc(Cl)c(F)c2)c(C(F)F)n1` [Example 2, N-(4′-chloro-3′,5-difluorobiphenyl-2-yl)-3-(difluoromethyl)-1-ethyl-1H-pyrazole-4-carboxamide] returned a chromatographic logP of 3.34.
In data set [2], `CCn1cc(C(=O)Nc2ccc(F)cc2-c2ccc(Cl)c(Cl)c2)c(C(F)F)n1` [Example 1, N-(3′,4′-dichloro-5-fluorobiphenyl-2-yl)-3-(difluoromethyl)-1-ethyl-1H-pyrazole-4-carboxamide] had a chromatographic logP of 3.61.
On the same count and under the same terms, in the case of `Cn1nc(C(C)(C)C)c(C(=O)Nc2ccc(F)cc2-c2ccc(Cl)c(Cl)c2)c1Cl` [Example 5] it was 4.53.
In turn, `CCn1cc(C(=O)Nc2ccc(F)cc2-c2ccc(Cl)c(F)c2)c(C(F)F)n1` [drawing 20] had an Efficacy in % in data set [3] of 95%.
In data set [3], `CCn1cc(C(=O)Nc2ccc(F)cc2-c2ccc(Cl)c(Cl)c2)c(C(F)F)n1` [drawing 19] registered an Efficacy in % of 95%.
Regarding `CCn1cc(C(=O)Nc2ccc(F)cc2-c2ccc(Cl)c(Cl)c2)c(C(F)F)n1` [drawing 16], the Efficacy in % in data set [4] turned out to be 95%.
`Cn1nc(C(C)(C)C)c(C(=O)Nc2ccc(F)cc2-c2ccc(Cl)c(Cl)c2)c1Cl` [drawing 18] gave an Efficacy in % in data set [5] of 70%.
